Experimental data from patent US8076487B2, “Pyridone derivative and herbicide” (Kumiai Chemical Industry Co., Ltd., priority 2006, dated 2011).

Key:
Assay type in all cases: in vivo
[1] = system: green foxtail (Setaria viridis (L.) P. Beauv.); assay: Test Example 2: herbicidal effect by soil application to upland field; conditions: soil surface spray, upland field soil, 1,000 g active ingredient per hectare, 21st day after application
In short: (§1)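 After sowing and covering, the soil received an even aqueous spray of wettable powder at a rate of 1,000 g active ingredient/ha (1,000 L/ha). Ratings of herbicidal effect followed a standard scale 21 days post-treatment, with plants held in a greenhouse.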

[2] = system: barnyardgrass (Echinochloa crus-galli (L.) P. Beauv. var. crus-galli); assay: as above; conditions: soil surface spray, upland field soil, 1,000 g active ingredient per hectare, 21st day after application
In short: as §1

[3] = system: velvetleaf (Abutilon theophrasti medicus); assay: as above; conditions: soil surface spray, upland field soil, 1,000 g active ingredient per hectare, 21st day after application
In short: as §1

[4] = system: slender amaranth (Amaranthus viridis L.); assay: as above; conditions: soil surface spray, upland field soil, 1,000 g active ingredient per hectare, 21st day after application
In short: as §1

[5] = system: Japanese bulrush (Scirpus juncoides Roxb.); assay: Test Example 1: herbicidal effect by soil application to paddy field; conditions: paddy field soil application; active ingredient 1,000 g per 1 hectare; wettable powder added dropwise to water surface the day after sowing; examined on the 21st day after application
In short: (§2)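 Plants were sown in flooded (3 cm) paddy soil and evaluated for herbicidal effect 21 days after soil application in a greenhouse.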

[6] = system: early watergrass (Echinochloa oryzicola Vasing); assay: as above; conditions: paddy field soil application; active ingredient 1,000 g per 1 hectare; wettable powder added dropwise to water surface the day after sowing; examined on the 21st day after application
In short: as §2

[7] = system: heartshape false pickerelweed (Monochoria vaginalis (Burm.f.) C.Presl); assay: as above; conditions: paddy field soil application; active ingredient 1,000 g per 1 hectare; wettable powder added dropwise to water surface the day after sowing; examined on the 21st day after application
In short: as §2

[8] = system: green foxtail (Setaria viridis (L.) P. Beauv.); assay: Test Example 3: herbicidal effect by application to upland field (foliage treatment); conditions: 14th day after application; for herbicidal effect, Green Foxtail: foliage treatment, 1,000 g active ingredient per 1 hectare, greenhouse; for herbicidal effect (index), Green Foxtail: foliage treatment, plants grown two weeks, 1,000 g active ingredient per hectare
In short: (§3)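 Post-emergence spray at 1,000 g AI/ha of wettable powder in water (1,000 L/ha), onto seedlings grown 2 weeks in greenhouse field-soil pots. Graded day 14.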

[9] = system: barnyardgrass (Echinochloa crus-galli (L.) P. Beauv. var. crus-galli); assay: as above; conditions: 14th day after application; for herbicidal effect, Barnyardgrass: foliage treatment, 1,000 g active ingredient per 1 hectare, greenhouse; for herbicidal effect (index), Barnyardgrass: foliage treatment, plants grown two weeks, 1,000 g active ingredient per hectare
In short: as §3

[10] = system: velvetleaf (Abutilon theophrasti medicus); assay: as above; conditions: 14th day after application; for herbicidal effect, Velvetleaf: foliage treatment, 1,000 g active ingredient per 1 hectare, greenhouse; for herbicidal effect (index), Velvetleaf: foliage treatment, plants grown two weeks, 1,000 g active ingredient per hectare
In short: as §3

[11] = system: slender amaranth (Amaranthus viridis L.); assay: as above; conditions: 14th day after application; for herbicidal effect, Slender Amaranth: foliage treatment, 1,000 g active ingredient per 1 hectare, greenhouse; for herbicidal effect (index), Slender Amaranth: foliage treatment, plants grown two weeks, 1,000 g active ingredient per hectare
In short: as §3

SMILES | herbicidal effect (index), Green Foxtail [1] | herbicidal effect (index), Barnyardgrass [2] | herbicidal effect (index), Velvetleaf [3] | herbicidal effect (index), Slender Amaranth [4] | herbicidal effect, Scirpus juncoides Roxb. [5] | herbicidal effect, Echinochloa oryzicola Vasing [6] | herbicidal effect, Monochoria vaginalis (Burm. f.) C. Presl [7] | herbicidal effect, Green Foxtail [8] | herbicidal effect, Barnyardgrass [9] | herbicidal effect, Velvetleaf [10] | herbicidal effect, Slender Amaranth [11] | herbicidal effect (index), Green Foxtail [8] | herbicidal effect (index), Barnyardgrass [9] | herbicidal effect (index), Velvetleaf [10] | herbicidal effect (index), Slender Amaranth [11]
C[S+]([O-])CCCn1c(C(F)(F)F)ccc(C(=O)C2=C(O)C3CCC(C3)C2=O)c1=O (stereo not drawn) [III-32] | 5 (90% or more of herbicidal effect and crop phytotoxicity) | 5 (90% or more of herbicidal effect and crop phytotoxicity) | 5 (90% or more of herbicidal effect and crop phytotoxicity) | 5 (90% or more of herbicidal effect and crop phytotoxicity) | 5 (90% or more of herbicidal effect and crop phytotoxicity) | 5 (90% or more of herbicidal effect and crop phytotoxicity) | 5 (90% or more of herbicidal effect and crop phytotoxicity) | 5 (90% or more of herbicidal effect and crop phytotoxicity) | 5 (90% or more of herbicidal effect and crop phytotoxicity) | 5 (90% or more of herbicidal effect and crop phytotoxicity) | 5 (90% or more of herbicidal effect and crop phytotoxicity) |  |  |  | 
O=C1CCCC(O)=C1C(=O)c1ccc(C(F)(F)F)n(-c2ccc(C(F)(F)F)cc2)c1=O [I-86] | 5 (90% or more of herbicidal effect and crop phytotoxicity) | 5 (90% or more of herbicidal effect and crop phytotoxicity) | 5 (90% or more of herbicidal effect and crop phytotoxicity) | 5 (90% or more of herbicidal effect and crop phytotoxicity) | 5 (90% or more of herbicidal effect and crop phytotoxicity) | 5 (90% or more of herbicidal effect and crop phytotoxicity) | 5 (90% or more of herbicidal effect and crop phytotoxicity) |  |  |  |  | 5 (90% or more of herbicidal effect and crop phytotoxicity) | 5 (90% or more of herbicidal effect and crop phytotoxicity) | 5 (90% or more of herbicidal effect and crop phytotoxicity) | 5 (90% or more of herbicidal effect and crop phytotoxicity)
Cn1ncc(C(=O)c2ccc(C(F)(F)F)n(C)c2=O)c1OC(=O)c1ccc(C(C)(C)C)cc1 [IV-198] | 3 (50 to less than 70% of herbicidal effect and crop phytotoxicity) | 3 (50 to less than 70% of herbicidal effect and crop phytotoxicity) | 4 (70 to less than 90% of herbicidal effect and crop phytotoxicity) | 5 (90% or more of herbicidal effect and crop phytotoxicity) | 5 (90% or more of herbicidal effect and crop phytotoxicity) | 5 (90% or more of herbicidal effect and crop phytotoxicity) | 5 (90% or more of herbicidal effect and crop phytotoxicity) | 3 (50 to less than 70% of herbicidal effect and crop phytotoxicity) | 4 (70 to less than 90% of herbicidal effect and crop phytotoxicity) | 5 (90% or more of herbicidal effect and crop phytotoxicity) | 5 (90% or more of herbicidal effect and crop phytotoxicity) |  |  |  | 
CCCn1c(C(F)(F)F)ccc(C(=O)C2=C(O)CCCC2=O)c1=O [I-3] | 5 (90% or more of herbicidal effect and crop phytotoxicity) | 5 (90% or more of herbicidal effect and crop phytotoxicity) | 5 (90% or more of herbicidal effect and crop phytotoxicity) | 5 (90% or more of herbicidal effect and crop phytotoxicity) | 5 (90% or more of herbicidal effect and crop phytotoxicity) | 5 (90% or more of herbicidal effect and crop phytotoxicity) | 5 (90% or more of herbicidal effect and crop phytotoxicity) |  |  |  |  | 5 (90% or more of herbicidal effect and crop phytotoxicity) | 5 (90% or more of herbicidal effect and crop phytotoxicity) | 5 (90% or more of herbicidal effect and crop phytotoxicity) | 5 (90% or more of herbicidal effect and crop phytotoxicity)
Cn1ncc(C(=O)c2ccc(C(F)(F)F)n(C)c2=O)c1OC(=O)c1ccccc1 [IV-197] | 4 (70 to less than 90% of herbicidal effect and crop phytotoxicity) | 4 (70 to less than 90% of herbicidal effect and crop phytotoxicity) | 5 (90% or more of herbicidal effect and crop phytotoxicity) | 5 (90% or more of herbicidal effect and crop phytotoxicity) | 5 (90% or more of herbicidal effect and crop phytotoxicity) | 5 (90% or more of herbicidal effect and crop phytotoxicity) | 5 (90% or more of herbicidal effect and crop phytotoxicity) | 4 (70 to less than 90% of herbicidal effect and crop phytotoxicity) | 4 (70 to less than 90% of herbicidal effect and crop phytotoxicity) | 5 (90% or more of herbicidal effect and crop phytotoxicity) | 5 (90% or more of herbicidal effect and crop phytotoxicity) |  |  |  | 
CCS(=O)(=O)Cn1c(C(F)(F)F)ccc(C(=O)C2=C(O)CCCC2=O)c1=O [I-49] | 4 (70 to less than 90% of herbicidal effect and crop phytotoxicity) | 5 (90% or more of herbicidal effect and crop phytotoxicity) | 5 (90% or more of herbicidal effect and crop phytotoxicity) | 5 (90% or more of herbicidal effect and crop phytotoxicity) | 5 (90% or more of herbicidal effect and crop phytotoxicity) | 5 (90% or more of herbicidal effect and crop phytotoxicity) | 5 (90% or more of herbicidal effect and crop phytotoxicity) |  |  |  |  | 5 (90% or more of herbicidal effect and crop phytotoxicity) | 5 (90% or more of herbicidal effect and crop phytotoxicity) | 5 (90% or more of herbicidal effect and crop phytotoxicity) | 5 (90% or more of herbicidal effect and crop phytotoxicity)
